Reference: patent publication US20260345605A1, “THERAPEUTIC AGENTS FOR HEART FAILURE” (Ottawa Hospital Research Institute, priority 2023, published 2026)

Tests used:
[1] = tested on: neonatal rat ventricular cardiomyocytes; experiment: Calcium transients (Fura2-AM) in neonatal rat ventricular cardiomyocytes; format: cell-based; conditions: for contractility / contractile function: inferred from peak calcium transient, AUC and time to peak
Protocol: Method: Freshly isolated wildtype neonatal rat ventricular cardiomyocytes were plated onto laminin coated glass coverslides, rinsed once and then loaded with 1 μM Fura2-AM (Life Technologies) for 15 min at 37 °C. After washing the cells thrice with Tyrode solution, measuring chambers were transferred onto a Nikon Eclipse TE2000-U microscope equipped with a fluorescence detection system (IonOptix). Ca^2+ transient values were recorded according to the corresponding FRET experiments. F340/F380 values in Fura2-AM experiments were calculated from the ratios of 510 nm emission light measured at 340 and 380 nm excitations.

[2] = tested on: Rb phosphorylation; conditions: cited from earlier work
[3] = tested on: Cyclin D1/CDK4; conditions: role: inhibitor; cited from earlier work
[4] = tested on: cardiomyocytes; experiment: Overall observation on remodeling of treated cardiomyocytes; format: cell-based
[5] = tested on: CDK4; experiment: pCDK4 Thr172 immunofluorescence and remodeling in primary cardiomyocytes; format: cell-based
From the text: Post treatment, the cells were washed, fixed, and were subjected to sequential staining of primary antibodies a Actinin and phospho-CDK4 (Thr172). The images were acquired using the Zeiss AxioVision SE64 Imaging software and analyzed using the ImageJ2 software.
Immunofluorescence was used to detect α-actinin, pCDK4 Thr172, and nuclei were stained with DAPI. […] The nuclear fluorescent intensity of pCDK4 Thr172 using the ImageJ software. The data are represented as Mean±Standard deviation.

[6] = tested on: NT Pro-BNP (iCell Cardiomyocyte); experiment: NT Pro-BNP ELISA in iCell Cardiomyocyte supernatants; format: cell-based, human; conditions: 24 hour; for Mean NT Pro-BNP levels: iCell Cardiomyocyte, UT 2407.521; for Pro-NT BNP levels compared to UT and CT1 treated cells: iCell cardiomyocytes
Protocol: A secondary screening was performed with 10 drugs identified from primary screening for their ability to induce physiological remodeling using morphometric analysis and measuring the levels of B-type natriuretic peptide (BNP), as a surrogate indicator of the hypertrophic response using ELISA. The compounds were selected based on the highly enriched targets identified in the drug set enrichment analysis with a high Z score. Cryopreserved iPS cell-derived cardiomyocytes (“iCell Cardiomyocytes”) obtained from Cellular Dynamics International (CDI, Madison, WI) were used as a cell model to perform the screening.
Pro-NT BNP levels in the culture media were measured following the 24 hour treatment using the Human NT Pro-BNP DuoSet ELISA kit (R&D Systems, Minnesota USA) as per the manufacturer's instruction. […] The plates were read on BMG BioTek Molecular Devices SpectraMax Microplate Reader at 450 nm to obtain the optical density followed by reading at 540 nm for wavelength correction.
Protein levels were identified by plotting a 4 parametric logistic regression curve using the standards provided with the kit.

[7] = tested on: cardiac angiogenesis (CD31); experiment: Cardiac angiogenesis by CD31 staining in PE rat model; format: in vivo, Sprague Dawley rat
Protocol: Animal Model Preparation. Sprague Dawley rats were continuously treated with phenylephrine (PE), an α-adrenergic agonist that causes vasoconstriction leading to increased afterload and decreased ventricular function, to create a left-ventricular dysfunction animal model. […] For chronic infusion of phenylephrine, Alzet® mini-osmotic pumps (2002, Durect® Corp) containing Phenylephrine (PE) (10 mg/kg/day) or PBS vehicle were surgically implanted dorsally and subcutaneously in each Sprague Dawley rat under isoflurane anaesthesia. The animals were allowed to develop left ventricular hypertrophy for 2 weeks following the osmotic pump implantation.
Echocardiography was performed, the animals were sacrificed at 3 weeks endpoint and the blood and tissue were harvested for further analysis.
The rat model was prepared as described in Example 12, and the cardiac tissue harvested at the end of the 3 weeks was prepared for CD31 Staining, which is a histological technique used to visualize and assess angiogenesis in cardiac tissue.

[8] = tested on: CDK6; conditions: role: inhibitor; cited from earlier work
[9] = tested on: phospho-Histone 3 (Ser10); experiment: phospho-Histone 3 (pH3 Ser10) staining in NRVM; format: cell-based, neonatal rat; conditions: PE
Protocol: A one-way ANOVA test performed to assess statistical significance across treatment groups.
The effect of AZD1152-HQPA on cardiac remodeling was further validated using the phospho-Histone 3 (pH3 Ser10) staining which is the downstream target of aurora kinase B. The NRVMs were plated at a density of 2.5×10^4 cells onto 25 mm diameter collagen coated coverslip. The cells were treated with controls (hCT1, PE), AZD1152-HQPA followed by a combination of PE and AZD1152-HQPA.
Post treatment, the cells were washed, fixed, and were subjected to sequential staining of primary antibodies a Actinin and phospho-Histone 3 (Ser10). The images were acquired using the Zeiss AxioVision SE64 Imaging software and analyzed using the ImageJ software. […] The data are represented as Mean±Standard deviation.

[10] = tested on: phenylephrine induced left ventricular hypertrophy; conditions: LV; HF markers; cited from earlier work
[11] = tested on: cardiac fibrosis; conditions: phenylephrine, reported; cited from earlier work
[12] = tested on: aurora kinase B; experiment: pAurkB S727 immunofluorescence and remodeling in NRVM; format: cell-based, neonatal rat; conditions: PE 100 μM
Protocol: Immunofluorescence was performed to validate and assess the effect of aurora B kinase inhibitor on cardiomyocyte remodeling. NRVMs were plated at a density of 2.5×10^4 cells onto 25 mm diameter collagen coated coverslip. Primary cardiomyocytes were incubated with control serum-free medium (Ctrl, SF medium), hCT1 (0.5 nM), PE (100 μM), AZD1152-HQPA (1.5 μM) and assessed for aurora kinase B activation using pAurkB s727 antibody staining. The cells were treated with a combination of PE and AZD1152 HQPA where the cells were stimulated with the drug for 4 hours following the PE treatment for 24 hours.
Post treatment, the cells were washed, fixed, and were subjected to sequential staining of primary antibodies a Actinin and phospho-AurkB (S727). The images were acquired using the Zeiss AxioVision SE64 Imaging software and analyzed using the ImageJ2 software. Immunofluorescence was used to detect α-actinin, pAurkb S727, and nuclei were stained with DAPI.

In the case of `CCN1CCN(Cc2ccc(Nc3ncc(F)c(-c4cc(F)c5nc(C)n(C(C)C)c5c4)n3)nc2)CC1` [LY2835219], the “area under the curve (AUC) of calcium transient” value ([1]; compared to control, FIG. 11) is reported as “increased AUC compared to control”, the calcium transient levels ([1]; compared to control, FIG. 11) is reported as “increase in calcium transient levels compared to control” and the “contractility / contractile function” value [1] is reported as “improved contractility by modest increase in peak calcium transient levels and AUC with modest decrease in time to attain those peak levels”. For the same compound, the Rb phosphorylation [2] was “inhibits Rb phosphorylation”, the cell cycle arrest [2] was “G1 arrest” and the “inhibition of Cyclin D1/CDK4” value [3] was “low nanomolar potency”. The cardiomyocyte remodeling [4] was “adaptive and compensatory remodeling that resembles a physiologic growth response, adding sarcomeres in series”, the CDK4 activation ([5]; LY2835219 1.5 μM) was “inhibited CDK4 activation” and the “pathological effect of PE” value ([5]; drug for 4 hr following PE treatment for 24 hours) was “able to reverse the pathological effect of PE”. The “Mean NT Pro-BNP levels” value ([6]; drug 0.25 μm) was 1232.484 pg/mL, the “Mean NT Pro-BNP levels” value ([6]; drug 0.5 μm) was 1226.226 pg/mL and the “Mean NT Pro-BNP levels” value ([6]; drug 2.5 μm) was 1747.475 pg/mL. For the same compound, the “Pro-NT BNP levels compared to UT and CT1 treated cells” value [6] was “comparable and/or reduced BNP levels”, the cardiac angiogenesis ([7]; LY2835219 in PE treated animals) was “improve angiogenesis” and the cardiac angiogenesis ([7]; LY2835219 treatment) was “increased angiogenesis”. For the same compound, the “inhibition of CDK6” value [8] was “low nanomolar potency”.

In the case of `CNC[C@H](O)c1cccc(O)c1` [PE, phenylephrine], the “area under the curve (AUC) of calcium transient” value ([1]; compared to control, FIG. 11) is reported as “much higher AUC”, the calcium transient levels ([1]; compared to control, FIG. 11) is reported as “aberrant increase calcium transient levels” and the “time to peak calcium transient” value ([1]; compared to control, FIG. 11) is reported as “decreased time to peak calcium transient”. For the same compound, the “contractility / contractile function” value [1] was “defective contractile function of cardiomyocytes”, the “pH3 Ser10 staining” value [9] was “Increased pH3 Ser10 staining” and the “effect of phenylephrine on left ventricle (background)” value [10] was “myocardial hypertrophy of the LV, increased LV weight, systolic dysfunction, and increased expression of HF markers atrial natriuretic peptide and brain natriuretic peptide”. The CDK4 activation ([5]; PE 100 μM) was “CDK4 activation”, the cardiomyocyte remodeling ([5]; PE 100 μM) was “concentric hypertrophic remodeling was observed” and the “Mean NT Pro-BNP levels” value ([6]; control PE) was 3236.015 pg/mL. The “Pro-NT BNP levels compared to UT and CT1 treated cells” value [6] was “significantly elevated levels”, the “pathways involved in cardiac fibrosis (background)” value [11] was “stimulate pathways involved in cardiac fibrosis” and the CD31 staining ([7]; PE, compared to control sham animals) was “significantly decreased CD31 staining”. For the same compound, the AurkB activation [12] was “AurkB activation” and the cardiomyocyte remodeling [12] was “concentric hypertrophic remodeling was observed”.
